In publication PMC7294993 (Science signaling, 2020):

Columns and labels:
MRCKB (CDC42BPB) = MRCKB (CDC42BPB) (Homo sapiens, UniProt Q9Y5S2); test: in vitro radioisotope […] kinase assay, 10-dose; type: biochemical
MRCKA (CDC42BPA) = MRCKA (CDC42BPA) (Homo sapiens, UniProt Q5VT25); test: in vitro radioisotope […] kinase assay, 10-dose; type: biochemical
Chain of MRCKA (CDC42BPA) (Q5VT25 whole entry): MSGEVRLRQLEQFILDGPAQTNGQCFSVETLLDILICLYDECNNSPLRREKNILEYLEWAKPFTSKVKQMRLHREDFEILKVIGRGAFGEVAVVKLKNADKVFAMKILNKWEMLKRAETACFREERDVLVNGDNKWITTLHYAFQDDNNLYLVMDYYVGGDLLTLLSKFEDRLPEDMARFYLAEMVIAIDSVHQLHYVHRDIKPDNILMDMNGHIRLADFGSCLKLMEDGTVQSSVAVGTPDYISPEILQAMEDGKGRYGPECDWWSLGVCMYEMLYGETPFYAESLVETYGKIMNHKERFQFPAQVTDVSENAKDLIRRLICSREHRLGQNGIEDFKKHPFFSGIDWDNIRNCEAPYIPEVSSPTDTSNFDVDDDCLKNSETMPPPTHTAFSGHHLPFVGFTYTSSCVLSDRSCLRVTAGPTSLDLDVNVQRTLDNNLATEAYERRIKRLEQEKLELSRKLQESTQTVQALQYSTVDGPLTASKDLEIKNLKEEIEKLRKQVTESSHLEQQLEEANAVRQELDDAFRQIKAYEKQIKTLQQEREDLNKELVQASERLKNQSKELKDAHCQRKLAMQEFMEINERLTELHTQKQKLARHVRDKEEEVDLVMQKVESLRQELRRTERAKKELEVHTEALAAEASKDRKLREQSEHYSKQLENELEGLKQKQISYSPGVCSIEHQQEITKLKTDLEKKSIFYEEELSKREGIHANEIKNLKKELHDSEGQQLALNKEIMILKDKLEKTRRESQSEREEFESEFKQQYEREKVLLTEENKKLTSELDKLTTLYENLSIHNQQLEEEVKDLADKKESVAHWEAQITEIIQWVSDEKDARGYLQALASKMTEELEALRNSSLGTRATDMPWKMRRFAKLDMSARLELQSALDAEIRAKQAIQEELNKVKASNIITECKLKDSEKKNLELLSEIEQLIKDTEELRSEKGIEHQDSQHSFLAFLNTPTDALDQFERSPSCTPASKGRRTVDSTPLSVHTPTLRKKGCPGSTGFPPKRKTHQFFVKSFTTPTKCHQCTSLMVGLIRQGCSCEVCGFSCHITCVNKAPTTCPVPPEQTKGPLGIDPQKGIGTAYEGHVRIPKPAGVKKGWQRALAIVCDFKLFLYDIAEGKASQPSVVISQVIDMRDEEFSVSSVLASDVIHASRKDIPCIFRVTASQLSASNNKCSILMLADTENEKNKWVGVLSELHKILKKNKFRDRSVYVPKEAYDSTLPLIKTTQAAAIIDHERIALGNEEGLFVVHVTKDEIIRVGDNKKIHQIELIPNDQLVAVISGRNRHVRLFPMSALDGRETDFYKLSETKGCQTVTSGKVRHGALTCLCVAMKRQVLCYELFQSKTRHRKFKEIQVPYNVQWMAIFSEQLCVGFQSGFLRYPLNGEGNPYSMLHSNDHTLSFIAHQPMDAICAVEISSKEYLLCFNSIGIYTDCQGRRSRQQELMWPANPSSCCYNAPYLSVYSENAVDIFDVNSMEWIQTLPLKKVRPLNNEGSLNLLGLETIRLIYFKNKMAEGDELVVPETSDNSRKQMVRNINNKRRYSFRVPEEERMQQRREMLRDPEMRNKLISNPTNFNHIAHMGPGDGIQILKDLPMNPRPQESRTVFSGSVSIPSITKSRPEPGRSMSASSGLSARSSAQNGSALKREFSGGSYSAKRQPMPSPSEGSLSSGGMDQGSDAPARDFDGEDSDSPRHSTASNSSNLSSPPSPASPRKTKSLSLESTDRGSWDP

Chain of MRCKB (CDC42BPB) (Q9Y5S2 whole entry): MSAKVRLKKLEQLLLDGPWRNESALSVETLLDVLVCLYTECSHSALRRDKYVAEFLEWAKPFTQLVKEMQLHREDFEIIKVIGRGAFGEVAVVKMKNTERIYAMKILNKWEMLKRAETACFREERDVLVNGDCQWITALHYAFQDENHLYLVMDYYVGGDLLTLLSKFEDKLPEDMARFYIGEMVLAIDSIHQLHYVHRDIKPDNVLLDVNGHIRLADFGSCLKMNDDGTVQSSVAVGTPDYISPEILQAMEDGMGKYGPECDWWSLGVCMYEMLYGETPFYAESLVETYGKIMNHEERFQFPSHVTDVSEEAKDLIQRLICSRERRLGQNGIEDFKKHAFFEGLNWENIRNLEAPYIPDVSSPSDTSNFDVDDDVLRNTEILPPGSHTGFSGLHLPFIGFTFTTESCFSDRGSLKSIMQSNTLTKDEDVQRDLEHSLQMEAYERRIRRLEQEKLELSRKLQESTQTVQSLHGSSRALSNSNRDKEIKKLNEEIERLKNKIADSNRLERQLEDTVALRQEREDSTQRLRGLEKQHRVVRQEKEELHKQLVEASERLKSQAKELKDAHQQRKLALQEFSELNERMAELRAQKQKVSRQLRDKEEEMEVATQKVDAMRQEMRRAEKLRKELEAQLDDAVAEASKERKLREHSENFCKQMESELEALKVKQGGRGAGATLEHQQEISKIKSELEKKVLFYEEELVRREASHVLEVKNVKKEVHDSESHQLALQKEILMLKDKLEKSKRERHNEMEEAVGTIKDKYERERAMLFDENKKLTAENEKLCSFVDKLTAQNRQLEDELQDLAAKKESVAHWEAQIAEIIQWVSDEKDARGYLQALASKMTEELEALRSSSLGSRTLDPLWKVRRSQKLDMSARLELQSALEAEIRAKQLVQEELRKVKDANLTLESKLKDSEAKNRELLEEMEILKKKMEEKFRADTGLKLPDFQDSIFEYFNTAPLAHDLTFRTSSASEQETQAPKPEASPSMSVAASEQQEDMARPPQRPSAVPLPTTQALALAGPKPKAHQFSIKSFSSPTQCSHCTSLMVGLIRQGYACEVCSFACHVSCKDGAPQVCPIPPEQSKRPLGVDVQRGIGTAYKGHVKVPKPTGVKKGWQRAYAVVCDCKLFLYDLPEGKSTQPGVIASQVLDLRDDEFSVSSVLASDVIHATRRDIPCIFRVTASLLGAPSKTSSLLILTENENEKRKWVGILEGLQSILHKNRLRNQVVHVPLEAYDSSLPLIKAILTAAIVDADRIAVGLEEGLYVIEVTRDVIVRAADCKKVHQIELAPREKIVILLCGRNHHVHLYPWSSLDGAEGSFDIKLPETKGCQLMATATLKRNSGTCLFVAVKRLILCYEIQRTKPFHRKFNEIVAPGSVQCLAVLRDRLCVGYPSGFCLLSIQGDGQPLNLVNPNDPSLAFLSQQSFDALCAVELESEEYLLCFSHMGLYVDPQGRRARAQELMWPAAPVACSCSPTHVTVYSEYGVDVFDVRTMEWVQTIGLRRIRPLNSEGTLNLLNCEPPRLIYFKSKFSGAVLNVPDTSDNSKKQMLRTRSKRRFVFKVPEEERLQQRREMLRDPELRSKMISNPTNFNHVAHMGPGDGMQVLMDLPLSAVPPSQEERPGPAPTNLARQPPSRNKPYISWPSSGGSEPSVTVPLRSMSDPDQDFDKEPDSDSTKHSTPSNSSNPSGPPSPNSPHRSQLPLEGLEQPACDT

EC50 (MRCKB (CDC42BPB)): 72 nM
EC50 (MRCKA (CDC42BPA)): 65 nM
Substance: BDP9066
